According to US11225474B2, “Crystalline salt forms of 3-(1,2,4-triazolo[4,3-a]pyridine-3-ylethynyl)-4-methyl-N-(4-((4-methylpiperazin-1-yl)methyl)-3-trifluoromethylphenyl)benzamide for medical application” (priority 2016, dated 2022):

What was measured:
[1] = Acute toxicity, oral route, mice; details: male, CD-1, mouse, in vivo, po, LD50, oral, male CD-1 mice
Source text: (§1) For each drug dose study a group of six animals was used. The study included control groups with the same animal headcount, which received equivalent solvent doses of a 0.5% water solution of methylcellulose. The follow-up period was 28 days. Lab mouse survivability analysis allowed carrying out Bliss analysis and determining the lethal doses of the studied drugs.

CD-1 line mice males = experiment: Acute toxicity, oral route, mice; details: for LD10 / LD90: oral, male CD-1 mice
Source text: as §1

BLK = BLK (Homo sapiens, UniProt P51451); experiment: Human kinase panel at 100 nM; type: biochemical
EPHB2 = EPHB2 (Homo sapiens, UniProt P29323); experiment: Human kinase panel at 100 nM; type: biochemical
FGR = FGR (Homo sapiens, UniProt P09769); experiment: Human kinase panel at 100 nM; type: biochemical
FLT4/VEGFR3 = FLT4/VEGFR3 (Homo sapiens, UniProt P35916); experiment: Human kinase panel at 100 nM; type: biochemical
FYN = FYN (Homo sapiens, UniProt P06241); experiment: Human kinase panel at 100 nM; type: biochemical
HCK = HCK (Homo sapiens, UniProt P08631); experiment: Human kinase panel at 100 nM; type: biochemical
KDR/VEGFR2 = KDR/VEGFR2 (Homo sapiens, UniProt P35968); experiment: Human kinase panel at 100 nM; type: biochemical
P38a/MAPK14 = P38a/MAPK14 (Homo sapiens, UniProt Q16539); experiment: Human kinase panel at 100 nM; type: biochemical
PDGFRb = PDGFRb (Homo sapiens, UniProt P09619); experiment: Human kinase panel at 100 nM; type: biochemical
RIPK3 = RIPK3 (Homo sapiens, UniProt Q9Y572); experiment: Human kinase panel at 100 nM; type: biochemical
Tom-1 = experiment: Cytotoxicity, Ph+ ALL model cell line; type: cell-based; details: Homo sapiens, read-out: IC50 (toxicity)
BaF3/BCR-ABL Y253F = experiment: Toxicity to transduced BaF3 model tumor cell line; type: cell-based, murine; details: Mus musculus
BaF3/BCR-ABL E255K = experiment: Toxicity to transduced BaF3 model tumor cell line; type: cell-based, murine; details: Mus musculus
BaF3/BCR-ABL T315I = experiment: Toxicity to transduced BaF3 model tumor cell line; type: cell-based, murine; details: Mus musculus
MDA-MB-468 = experiment: Cytotoxicity, breast cancer line; type: cell-based, human
EL4 = experiment: Cytotoxicity, lymphoma line; type: cell-based, human
K562 line cells = experiment: Xenograft chronic leukemia model; type: in vivo, thymus-deprived mice; details: oral, 14 days, follow-up 240 days
Source text: The therapy was started after the size of the tumor had reached 500 mm^3, therapy duration was 14 days, the follow-up period was 240 days.

[2] = test system: marrow cells obtained from C57BL/6N line mice with induced acute leukemia; experiment: Acute leukemia mouse model; type: in vivo; details: oral, 40 mg/kg (34 mg/kg as free base), 2 weeks
Experimental: To induce the pathology, marrow cells obtained from C57BL/6N line mice with induced acute leukemia were used. Cells were injected to the tail vein of an animal following administration of a sub lethal dose of radiation. Therapy was initiated on the 5th day after pathology induction and continued for 2 weeks.

in vivo = type: in vivo; details: mice
CYP2C8 = CYP2C8 (Homo sapiens, UniProt P10632); experiment: Metabolism study using cytochrome enzyme drugs; type: in vitro ADME; details: 2C8
CYP2C9 = CYP2C9 (Homo sapiens, UniProt P11712); experiment: Metabolism study using cytochrome enzyme drugs; type: in vitro ADME; details: 2C9
rats = experiment: Acute toxicity studies, rats; type: in vivo
Guinea pigs and mice = experiment: Allergenic properties (anaphylaxis, ITH, DTH and related models); type: in vivo, Guinea pig; mice; details: all models studied
Source text: To identify allergenic properties, the following methods were used: evaluation of anaphylactogenic activity using Guinea pig general systemic anaphylaxis and active cutaneous anaphylaxis models; evaluation of immediate-type hypersensitivity (ITH) reaction and delayed-type hypersensitivity (DTH) reaction in Guinea pigs following epicutaneous and conjunctival drug application; evaluation of DTH reaction in mice; study of the inflammation reaction to A concanavalin in mice; measuring of eosinophil blood count, evaluation of the effect on phagocyte neutrophil activity (Nitro Blue-Tetrazolium Test (NBT)), and leukocyte specific lysis reaction scenario using a Guinea pig model with subcutaneous administration of the drug.

HCT116 line cells = details: oral, 25 mg/kg (21 mg/kg as free base), 20 days
Experimental: To induce pathology, HCT116 line cells were used. Cells in the amount of 200 μL (2.5×10^7 cells/mL) were subcutaneously injected to the right side of thymus-deprived female mice (SCID). […] To determine the efficacy of tumor growth inhibition upon completion of treatment (20 days), the average size ratio was calculated between the therapeutic/control groups (% T/C).

Bcr-Abl (T315I) = Bcr-Abl (T315I) (Homo sapiens, UniProt P00519, T315I, form not given); experiment: Bcr-Abl tyrosine kinase enzyme activity; details: 3 independent experiments
Bcr-Abl (H396P) = Bcr-Abl (H396P) (Homo sapiens, UniProt P00519, H396P, form not given); experiment: Bcr-Abl tyrosine kinase enzyme activity
Bcr-Abl (Y253F) = Bcr-Abl (Y253F) (Homo sapiens, UniProt P00519, Y253F, form not given); experiment: Bcr-Abl tyrosine kinase enzyme activity
[3] = dose of the substance administered

Chain of KDR/VEGFR2 (P35968 20-1356): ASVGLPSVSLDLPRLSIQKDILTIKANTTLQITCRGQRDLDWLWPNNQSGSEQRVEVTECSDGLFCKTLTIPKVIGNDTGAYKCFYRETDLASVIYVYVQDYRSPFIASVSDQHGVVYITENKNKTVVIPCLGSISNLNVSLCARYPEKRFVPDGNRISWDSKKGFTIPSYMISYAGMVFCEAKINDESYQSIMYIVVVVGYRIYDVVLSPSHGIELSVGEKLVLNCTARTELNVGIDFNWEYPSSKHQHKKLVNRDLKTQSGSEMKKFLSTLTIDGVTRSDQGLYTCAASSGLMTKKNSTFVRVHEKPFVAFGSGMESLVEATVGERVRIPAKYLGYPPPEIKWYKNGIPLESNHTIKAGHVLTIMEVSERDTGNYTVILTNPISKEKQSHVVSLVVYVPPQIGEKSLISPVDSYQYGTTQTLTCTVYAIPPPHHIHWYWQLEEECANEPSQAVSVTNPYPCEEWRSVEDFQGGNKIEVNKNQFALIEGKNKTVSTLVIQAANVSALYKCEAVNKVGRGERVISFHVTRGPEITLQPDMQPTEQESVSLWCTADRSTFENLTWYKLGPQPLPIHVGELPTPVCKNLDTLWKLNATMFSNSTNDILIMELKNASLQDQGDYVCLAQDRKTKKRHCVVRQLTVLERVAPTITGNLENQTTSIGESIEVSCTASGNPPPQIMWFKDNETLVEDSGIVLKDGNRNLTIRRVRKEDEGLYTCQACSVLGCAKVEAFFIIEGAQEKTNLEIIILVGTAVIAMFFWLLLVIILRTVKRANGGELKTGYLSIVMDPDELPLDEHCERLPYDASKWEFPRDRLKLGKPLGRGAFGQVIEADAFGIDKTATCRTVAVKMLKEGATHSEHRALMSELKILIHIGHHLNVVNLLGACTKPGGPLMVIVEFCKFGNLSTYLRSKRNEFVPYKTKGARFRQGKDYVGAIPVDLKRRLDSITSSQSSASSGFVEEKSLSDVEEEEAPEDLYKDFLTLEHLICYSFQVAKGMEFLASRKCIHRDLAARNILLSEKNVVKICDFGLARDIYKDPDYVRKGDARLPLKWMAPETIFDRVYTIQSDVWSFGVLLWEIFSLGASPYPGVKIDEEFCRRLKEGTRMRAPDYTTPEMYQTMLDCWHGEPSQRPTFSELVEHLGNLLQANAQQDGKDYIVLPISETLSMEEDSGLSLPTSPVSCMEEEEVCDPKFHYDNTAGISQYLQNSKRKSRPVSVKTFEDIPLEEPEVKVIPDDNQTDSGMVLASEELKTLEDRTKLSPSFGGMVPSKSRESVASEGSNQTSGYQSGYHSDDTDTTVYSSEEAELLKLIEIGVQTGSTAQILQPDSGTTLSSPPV
Chain of CYP2C9 (P11712 whole entry): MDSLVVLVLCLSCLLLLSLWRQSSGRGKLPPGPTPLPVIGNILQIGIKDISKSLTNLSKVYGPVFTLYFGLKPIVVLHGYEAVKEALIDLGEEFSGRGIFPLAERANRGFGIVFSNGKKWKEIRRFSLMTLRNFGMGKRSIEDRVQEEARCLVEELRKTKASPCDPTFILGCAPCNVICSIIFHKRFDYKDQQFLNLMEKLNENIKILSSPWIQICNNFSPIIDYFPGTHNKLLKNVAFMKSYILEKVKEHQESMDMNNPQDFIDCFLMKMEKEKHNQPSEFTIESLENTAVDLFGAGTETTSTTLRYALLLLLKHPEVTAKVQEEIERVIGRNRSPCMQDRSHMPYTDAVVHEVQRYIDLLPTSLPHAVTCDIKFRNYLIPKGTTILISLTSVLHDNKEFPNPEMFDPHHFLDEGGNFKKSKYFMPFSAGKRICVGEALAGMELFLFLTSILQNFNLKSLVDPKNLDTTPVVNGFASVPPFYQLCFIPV
Chain of EPHB2 (P29323 19-1055): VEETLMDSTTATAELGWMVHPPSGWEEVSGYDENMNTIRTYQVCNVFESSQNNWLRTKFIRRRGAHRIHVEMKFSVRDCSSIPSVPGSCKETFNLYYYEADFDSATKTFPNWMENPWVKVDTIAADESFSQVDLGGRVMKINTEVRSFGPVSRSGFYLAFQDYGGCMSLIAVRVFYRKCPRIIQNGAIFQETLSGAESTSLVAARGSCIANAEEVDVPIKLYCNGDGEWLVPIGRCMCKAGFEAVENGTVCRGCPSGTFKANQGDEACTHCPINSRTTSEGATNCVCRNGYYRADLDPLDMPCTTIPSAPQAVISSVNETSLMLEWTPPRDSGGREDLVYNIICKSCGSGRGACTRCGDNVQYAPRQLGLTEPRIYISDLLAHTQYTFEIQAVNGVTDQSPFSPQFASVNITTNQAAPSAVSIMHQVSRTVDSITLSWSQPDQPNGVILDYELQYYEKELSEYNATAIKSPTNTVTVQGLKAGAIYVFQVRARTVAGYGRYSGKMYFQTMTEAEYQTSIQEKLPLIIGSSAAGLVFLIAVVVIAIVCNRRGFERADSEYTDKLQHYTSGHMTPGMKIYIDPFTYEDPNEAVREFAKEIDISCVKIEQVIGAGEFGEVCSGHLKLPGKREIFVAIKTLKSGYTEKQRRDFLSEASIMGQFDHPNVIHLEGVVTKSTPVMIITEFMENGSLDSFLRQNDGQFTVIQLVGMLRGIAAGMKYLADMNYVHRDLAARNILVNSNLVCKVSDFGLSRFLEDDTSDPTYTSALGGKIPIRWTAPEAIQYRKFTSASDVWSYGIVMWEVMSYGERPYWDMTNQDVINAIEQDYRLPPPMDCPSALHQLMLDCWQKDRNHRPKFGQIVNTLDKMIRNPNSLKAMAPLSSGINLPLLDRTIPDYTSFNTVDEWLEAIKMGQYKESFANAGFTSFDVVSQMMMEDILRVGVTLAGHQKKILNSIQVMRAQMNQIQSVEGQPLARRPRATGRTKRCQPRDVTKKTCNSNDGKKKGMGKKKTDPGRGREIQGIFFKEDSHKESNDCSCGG
Chain of HCK (P08631 whole entry): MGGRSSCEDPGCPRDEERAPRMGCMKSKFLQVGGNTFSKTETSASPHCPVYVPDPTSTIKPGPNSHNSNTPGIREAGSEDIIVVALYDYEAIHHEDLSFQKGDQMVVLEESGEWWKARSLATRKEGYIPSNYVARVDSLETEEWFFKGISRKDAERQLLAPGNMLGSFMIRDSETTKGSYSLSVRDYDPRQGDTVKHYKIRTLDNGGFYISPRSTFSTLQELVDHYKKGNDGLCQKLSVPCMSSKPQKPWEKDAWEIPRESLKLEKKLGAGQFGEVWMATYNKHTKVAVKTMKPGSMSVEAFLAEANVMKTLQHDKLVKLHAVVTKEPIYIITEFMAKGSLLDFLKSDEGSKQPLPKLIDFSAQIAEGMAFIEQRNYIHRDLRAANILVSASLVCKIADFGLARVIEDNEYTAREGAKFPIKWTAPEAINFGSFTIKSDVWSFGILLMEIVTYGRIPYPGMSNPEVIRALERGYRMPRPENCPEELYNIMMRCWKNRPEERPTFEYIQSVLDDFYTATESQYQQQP
Chain of FYN (P06241 whole entry): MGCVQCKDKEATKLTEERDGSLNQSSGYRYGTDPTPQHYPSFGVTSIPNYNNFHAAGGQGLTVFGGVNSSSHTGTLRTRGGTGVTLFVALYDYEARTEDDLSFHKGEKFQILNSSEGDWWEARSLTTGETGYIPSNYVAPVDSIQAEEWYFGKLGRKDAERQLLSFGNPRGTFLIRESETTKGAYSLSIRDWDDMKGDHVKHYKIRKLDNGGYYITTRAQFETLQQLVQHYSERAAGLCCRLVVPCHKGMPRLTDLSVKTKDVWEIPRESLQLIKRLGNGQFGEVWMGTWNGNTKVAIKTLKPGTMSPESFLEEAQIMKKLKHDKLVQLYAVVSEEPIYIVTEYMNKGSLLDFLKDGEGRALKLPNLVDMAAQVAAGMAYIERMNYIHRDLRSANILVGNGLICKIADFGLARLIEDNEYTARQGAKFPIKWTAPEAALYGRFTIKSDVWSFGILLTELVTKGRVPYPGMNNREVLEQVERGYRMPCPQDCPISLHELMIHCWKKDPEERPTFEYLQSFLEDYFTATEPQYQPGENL
Chain of RIPK3 (Q9Y572 whole entry): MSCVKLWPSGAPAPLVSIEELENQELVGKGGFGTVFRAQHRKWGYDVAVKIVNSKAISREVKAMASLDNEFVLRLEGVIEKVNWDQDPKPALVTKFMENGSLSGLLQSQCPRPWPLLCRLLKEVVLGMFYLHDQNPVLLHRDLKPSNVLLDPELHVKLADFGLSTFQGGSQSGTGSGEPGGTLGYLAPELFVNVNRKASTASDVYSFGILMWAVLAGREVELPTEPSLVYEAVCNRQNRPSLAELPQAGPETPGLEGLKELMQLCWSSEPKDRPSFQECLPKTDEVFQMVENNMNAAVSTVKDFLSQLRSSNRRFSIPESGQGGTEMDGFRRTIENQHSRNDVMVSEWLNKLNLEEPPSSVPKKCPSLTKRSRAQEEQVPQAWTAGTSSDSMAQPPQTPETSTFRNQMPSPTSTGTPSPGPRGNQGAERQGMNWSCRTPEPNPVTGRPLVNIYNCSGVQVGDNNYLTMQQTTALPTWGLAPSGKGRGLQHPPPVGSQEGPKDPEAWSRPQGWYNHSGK
Chain of CYP2C8 (P10632 whole entry): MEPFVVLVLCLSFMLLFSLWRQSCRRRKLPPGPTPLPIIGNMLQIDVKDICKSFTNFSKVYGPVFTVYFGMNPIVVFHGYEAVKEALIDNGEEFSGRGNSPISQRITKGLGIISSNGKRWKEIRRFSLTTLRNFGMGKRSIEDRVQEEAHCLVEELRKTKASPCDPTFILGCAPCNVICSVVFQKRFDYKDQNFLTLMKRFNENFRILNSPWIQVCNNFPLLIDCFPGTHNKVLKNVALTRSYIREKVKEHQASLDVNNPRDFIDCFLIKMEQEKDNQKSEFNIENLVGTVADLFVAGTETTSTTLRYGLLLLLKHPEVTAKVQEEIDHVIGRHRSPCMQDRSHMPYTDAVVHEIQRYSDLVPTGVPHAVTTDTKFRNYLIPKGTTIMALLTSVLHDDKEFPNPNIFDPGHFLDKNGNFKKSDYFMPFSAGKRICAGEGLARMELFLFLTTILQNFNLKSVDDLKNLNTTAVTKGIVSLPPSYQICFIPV

## CS(=O)(=O)O.Cc1ccc(C(=O)Nc2ccc(CN3CCN(C)CC3)c(C(F)(F)F)c2)cc1C#Cc1nnc2ccccn12 [methanesulfonic acid salt, 3-(1,2,4-triazolo[4,3-a]pyridine-3-ylethynyl)-4-methyl-N-(4-((4-methylpiperazin-1-yl)methyl)-3-trifluoromethylphenyl)benzamide mono methanesulfonic acid salt]
[1]; calculated as a free base
  LD50 at 28 days: 1190 mg/kg
[1]; [3]
  LD50 at 28 days: 1400 mg/kg
CD-1 line mice males; mouse, in vivo, po
  signs of animal intoxication: dyspnea, hypodynamia, tumbled fur, diarrhea, bloating, in some animals—focal alopecia
CD-1 line mice males; calculated as a free base
  LD10: (508*) mg/kg
  LD90: (1,864*) mg/kg
CD-1 line mice males; [3]
  LD10: 600 mg/kg
  LD90: 2,200 mg/kg
BLK
  inhibition at 0.1 µM: > 50%
EPHB2
  inhibition at 0.1 µM: > 50%
FGR
  inhibition at 0.1 µM: > 50%
FLT4/VEGFR3
  inhibition at 0.1 µM: > 50%
FYN
  inhibition at 0.1 µM: > 50%
HCK
  inhibition at 0.1 µM: > 50%
KDR/VEGFR2
  inhibition at 0.1 µM: > 50%
P38a/MAPK14
  inhibition at 0.1 µM: > 50%
PDGFRb
  inhibition at 0.1 µM: > 50%
RIPK3
  inhibition at 0.1 µM: > 50%
Tom-1
  IC50: 5 nM
BaF3/BCR-ABL Y253F
  IC50: 25 nM
BaF3/BCR-ABL E255K
  IC50: 25 nM
BaF3/BCR-ABL T315I
  IC50: 75 nM
MDA-MB-468
  cytotoxicity: showed cytotoxicity
EL4
  cytotoxicity: showed cytotoxicity
K562 line cells; 25 mg/kg (21 as free base) per day
  effect on the tumor size: decrease of the tumor size to an immeasurable size with subsequent proliferation after the 35th day of follow-up
K562 line cells; 40 mg/kg (34 as free base) per day
  effect on the tumor size: elimination of the tumor without relapse during all 240 days of follow-up in all mice
[2]
  increase of average lives compared to the control group: more than 25%
In vivo; mouse, in vivo, read-out: half-life period (converted)
  half-life: ~3 h
In vivo; mouse, in vivo, oral, 5 mg/kg
  AUC: 372 ng·h/mL
In vivo; mouse, in vivo, oral, 50 mg/kg
  AUC: 12100 ng·h/mL
In vivo; oral, 5 mg/kg
  maximum concentration: 82 ng/mL
In vivo; oral, 50 mg/kg
  maximum concentration: 1,099 ng/mL
In vivo; oral, 5 to 50 mg/kg
  period of absorption to maximum concentration: 2 to 4 h
CYP2C8
  participation of the isoform in metabolism: does not involve
CYP2C9
  participation of the isoform in metabolism: does not involve
rats; calculated as a free base
  LD10: 1,695 mg/kg
rats; dose of the salt
  LD10: 2,000 mg/kg
Guinea pigs and mice
  allergenic activity: did not display any detectable allergenic activity
HCT116 line cells
  T/C (average tumor size ratio therapeutic/control): < 35%
mice; intragastric administration (21 days), mice
  hemagglutinin and hemolysin levels in the blood: had no effect on the hemagglutinin and hemolysin levels in the blood
mice; mice
  toxic immune effect (overall): had no toxic immune effect
mice; mouse, in vivo
  rosette test: no effect in the rosette test
mice; single intragastric administration, mice
  hemagglutinin and hemolysin level in the blood: had no effect on the hemagglutinin and hemolysin level in the blood
Bcr-Abl (T315I)
  IC50: 0.78 to 21 nM
Bcr-Abl (H396P)
  IC50: 1 nM
Bcr-Abl (Y253F)
  IC50: 4.1 nM
